One series deals with T1, urokinase (uPA) (Homo sapiens, UniProt P00749).
T1 construct: purchased Calbiochem-Novabiochem GmbH, Bad Soden, Germany
The series can be described thus: In vitro inhibition of urokinase (Ki according to Dixon, chromogenic substrate). In kind it is biochemical. As for the experimental part:
(§1) In order to determine the inhibitory activity, 200 μl Tris buffer (0.05 mol/l containing the inhibitor, 0.154 mol/l NaCl, pH 8.0), 25 μl substrate (Pefachrome uPA, Pefachrome PL or Pefabloc TH in H2O; Pentapharm Ltd, Basle, Switzerland) and 50 μl urokinase (Calbiochem-Novabiochem GmbH, Bad Soden, Germany) or another appropriate protease e.g. plasmin, thrombin or FXa are incubated for 10 minutes at 30° C. After ca. 30 minutes and 30 cycles the absorption is determined at 405 nm by means of a microplate reader (Mediators PHL, Aureon Biosystems, Vienna, Austria). The Ki values were determined according to Dixon by linear regression using a computer program.

Another series addresses Thrombin (Homo sapiens, UniProt P00734). The series can be described thus: In vitro inhibition of thrombin (Ki according to Dixon). The format is biochemical. As for the experimental part: as §1
A further series concerns Caco-2 cell monolayers. The series can be described thus: Caco-assay: transport across Caco-2 cell monolayers. The format is in vitro ADME, human. The following applies: for % amount in the basolateral compartment: 10 μg/ml apical, four hours. As for the experimental part: Transport of the compounds WX-508, WXC-316, WXC-318, WXC-324, WXC-340, WX-532, WX-538, WX-550 and WX-582 across Caco-2 cell monolayers was investigated. In this experiment the bioavailability of the said compounds after oral administration was assessed.
Caco-2-cells (American Type Culture Collection, Rockville, Md., USA) were cultured in Dulbecco's modified Eagle medium (DMEM) (Life Technologies, Gibco BRL, UK) containing 10% vol/vol heat-denatured foetal calf serum (FCS), 1% vol/vol non-essential amino acids, 160 U/ml benzylpenicillin and 100 U/ml streptomycin (Sigma Chemical, St. Louis, Mo., USA). The cells are kept at 37° C. in an atmosphere comprising 95% air and 5% CO2 at 90% relative air humidity. The cells are cultured in […] culture flasks, the medium being replaced every second day and the cells are trypsinized once per week.
For the transport investigations the Caco-2 cells are cultured on porous polycarbonate filter membranes having a pore size of 0.4 μm and a surface of 4.7 cm^2 in clusters of 6 wells (Costar Transwell, Badhoevedorp, Netherlands). The cells are inoculated on each filter at an initial density of 10^4 cells/cm^2. These cells are kept at 37° C. in one of the atmospheres described above. The medium is replaced every second day for a period of three weeks.
On the day of the transport experiment the culture medium was replaced by the same volume of Hank's balanced saline solution (HBSS) buffered with 30 mM HEPES at pH 7.2 (transport medium) and the cells are allowed to equilibrate for 1 hour. Afterwards the apical medium is replaced by 1.5 ml of a solution containing one of the compounds in HBSS/HEPES (10 μg/ml). Cell monolayers are incubated for four hours. Samples of the apical and basolateral compartments are removed at the end of the experiments and used to quantitatively determine the transport of the respective compounds.
The transepithelial electric resistance (TEER) is measured before and after equilibration using a Milicell ERS meter which was connected to a pair of electrodes in order to ensure the integrity of the monolayers formed on the filters. TEER is also measured at the end of the experiments to ensure that the cell monolayer remains coherent.
Samples are taken from the apical and the basolateral side and analysed in a beta counter after adding a scintillation cocktail. All experiments were carried out three times.
A general note: Caco-2 cells form a polarised layer with tight junctions and transporters.

A further series deals with FXa (Homo sapiens, UniProt P00742). Put plainly: In vitro inhibition of FXa (Ki according to Dixon). In kind it is biochemical. As for the experimental part:
as §1

Series [1] is described as follows: Oral bioavailability and plasma kinetics in mice (serum concentration). In kind it is in vivo, Balb/c mice. The following applies: mouse; for concentration at 20 min / concentration at 40 min / concentration at 60 min: female, Balb/c, serum, po, read-out: c in the serum 1st analysis; for concentration at 20 min: sample at 20 minutes; for concentration at 40 min: sample at 40 minutes; for concentration at 60 min: sample at 60 minutes.

The next series addresses PK (Homo sapiens, UniProt P03952). Put plainly: In vitro inhibition of PK (Ki). The format is biochemical. Conditions: summary table. As to the method: as §1
The mark [2] stands for this setting: list of test substances of Example 17, read-out: Ki human uPA.
The mark [3] stands for this setting: summary table, read-out: Ki uPA.
[4] abbreviates: 10 mg/kg i.v., time of sample collection 0.
The mark [5] stands for this setting: 10 mg/kg i.v., time of sample collection 10.
The mark [6] stands for this setting: 10 mg/kg i.v., time of sample collection 30.

Counter-ions that a name gives are not always drawn. Like-named read-outs stand apart in the source and are kept apart here. Bounds are passed on as bounds.

FXa, sequence (P00742 235-488 limits assumed): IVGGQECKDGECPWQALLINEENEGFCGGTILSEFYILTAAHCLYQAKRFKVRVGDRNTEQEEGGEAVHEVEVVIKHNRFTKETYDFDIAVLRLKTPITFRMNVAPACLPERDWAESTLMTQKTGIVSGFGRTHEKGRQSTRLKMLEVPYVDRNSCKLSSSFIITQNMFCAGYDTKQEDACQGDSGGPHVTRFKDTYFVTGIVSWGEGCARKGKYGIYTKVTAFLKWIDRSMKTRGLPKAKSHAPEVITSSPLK
FXa, sequence (P00742 41-179 partner limits assumed): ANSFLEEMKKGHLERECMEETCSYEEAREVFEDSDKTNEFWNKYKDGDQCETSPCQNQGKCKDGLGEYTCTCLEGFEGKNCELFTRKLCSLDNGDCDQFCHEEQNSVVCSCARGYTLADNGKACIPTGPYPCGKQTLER
PK, sequence (P03952 20-638): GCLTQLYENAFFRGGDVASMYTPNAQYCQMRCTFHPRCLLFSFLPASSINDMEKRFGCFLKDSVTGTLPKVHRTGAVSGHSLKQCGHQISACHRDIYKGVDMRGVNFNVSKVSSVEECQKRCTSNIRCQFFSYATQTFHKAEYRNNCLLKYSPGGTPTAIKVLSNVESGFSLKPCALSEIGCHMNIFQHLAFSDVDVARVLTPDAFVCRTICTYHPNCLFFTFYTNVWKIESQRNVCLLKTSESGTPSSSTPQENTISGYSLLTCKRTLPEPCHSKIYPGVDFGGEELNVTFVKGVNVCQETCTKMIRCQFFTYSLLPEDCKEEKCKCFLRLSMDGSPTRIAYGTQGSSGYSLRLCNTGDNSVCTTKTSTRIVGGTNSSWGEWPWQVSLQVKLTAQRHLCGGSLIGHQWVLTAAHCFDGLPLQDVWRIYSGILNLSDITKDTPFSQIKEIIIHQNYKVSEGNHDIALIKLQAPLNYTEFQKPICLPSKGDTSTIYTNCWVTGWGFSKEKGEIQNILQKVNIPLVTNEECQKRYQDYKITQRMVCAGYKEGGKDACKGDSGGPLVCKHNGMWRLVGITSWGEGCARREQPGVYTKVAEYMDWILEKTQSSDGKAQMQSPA

`N=C(N)Nc1ccc(CNC(=O)NNC(=O)[C@@H](CO)NS(=O)(=O)Cc2ccccc2)cc1` [WX-544, BzSO2-(D)-Ser-AzaGly-(4-guanidinobenzyl)amide]: the Ki on urokinase (uPA) (read-out: Ki uPA) came out at 830 nM. The “Ki Thrombin” value on Thrombin is reported as “no inh. at 100 μM *)”.

As to `N=C(N)Nc1ccc(CNC(=O)CNC(=O)C(CO)NC(=O)Nc2cccc(C(=O)O)c2)cc1` (stereo not drawn) [WX-C324, 3-Carboxyphenyl-aminocarbonyl-(D)-Ser-Gly-(4-guanidinobenzyl)amide hydrochloride], the Ki on urokinase (uPA) (read-out: Ki uPA) was determined as 3100 nM. The results for the “% amount in the basolateral compartment” value in the series on Caco-2 cell monolayers (first value column), with Caco-2 cell monolayers (second value column) and with Caco-2 cell monolayers (third value column) were 0.1%, 0.1% and 2.0%, respectively. The “Caco-2 assay % basolateral” value in the series on Caco-2 cell monolayers (first series, first value) is 0.1%; in the series with Caco-2 cell monolayers (first series, second value), 0.1%; in the series with Caco-2 cell monolayers (first series, third value), 2.9%; with Caco-2 cell monolayers (second series, first value), 0%; with Caco-2 cell monolayers (second series, second value), 0%; in the series on Caco-2 cell monolayers (second series, third value), 3.0%.

On to `N=C(N)Nc1ccc(S(=O)(=O)NCCNC(=O)C(CO)NS(=O)(=O)Cc2ccccc2)cc1` (centres unmarked) [WX-568, N-[2-(4-guanidino-benzenesulfonylamino)-ethyl]-3-hydroxy-2-phenylmethanesulfonylamino-propionamide hydrochloride], for which the Ki at urokinase (uPA) (read-out: Ki uPA) was 2100 nM; at Thrombin, > 1 mM; at FXa, > 1 mM.

In the case of `CCCCS(=O)(=O)NC(CO)C(=O)NCC(=O)NCc1ccc(NC(=N)N)cc1` (stereo not drawn) [WX-C300, n-Butyl-sulfonyl-(D)-Ser-Gly-(4-guanidinobenzyl)amide hydrochloride], the inhibition constant (Ki) at urokinase (uPA) (setting [2]), at urokinase (uPA) (read-out: Ki uPA) and at urokinase (uPA) (setting [3]) was 270 nM throughout. The concentration at 20 min in series [1] (30 mg/kg, 30 mg/kg oral) came to 200 ng/mL; in series [1] (300 mg/kg, 300 mg/kg oral), 1500 ng/mL. Further, the concentration at 40 min in series [1] (30 mg/kg, 30 mg/kg oral) turned out to be 200 ng/mL; in series [1] (300 mg/kg, 300 mg/kg oral), 4600 ng/mL. For the same compound, the concentration at 60 min was 200 ng/mL in series [1] (30 mg/kg, 30 mg/kg oral) and 600 ng/mL in series [1] (300 mg/kg, 300 mg/kg oral). Further, the “c in the serum 1st analysis” value in series [1] (setting [4]) was 94.4 µg/mL; in series [1] (setting [5]), 11.0 µg/mL; in series [1] (setting [6]), 1.3 µg/mL.

For `CC1(C)C2CCC1(CS(=O)(=O)NC(CO)C(=O)NCC(=O)NCc1ccc(NC(=N)N)cc1)C(=O)C2` (stereo not drawn) [WX-C298, (+)-Camphor-10-sulfonyl-(D)-Ser-Gly-(4-guanidinobenzyl)amide hydrochloride], the Ki on urokinase (uPA) (read-out: Ki uPA) and on urokinase (uPA) (setting [3]) was 160 nM throughout. Further, the concentration at 20 min in series [1] (30 mg/kg, 30 mg/kg oral) was 200 ng/mL; in series [1] (300 mg/kg, 300 mg/kg oral), 17000 ng/mL. The concentration at 40 min turned out to be 400 ng/mL in series [1] (30 mg/kg, 30 mg/kg oral) and 10700 ng/mL in series [1] (300 mg/kg, 300 mg/kg oral). The concentration at 60 min stood at 100 ng/mL in series [1] (30 mg/kg, 30 mg/kg oral) and 7000 ng/mL in series [1] (300 mg/kg, 300 mg/kg oral). Besides, the “c in the serum 1st analysis” value in series [1] (setting [4]) was 66.2 µg/mL; in series [1] (setting [5]), 18.3 µg/mL; in series [1] (setting [6]), 2.1 µg/mL.

For `C[C@@H](C(=O)NCc1ccc(NC(=N)N)cc1)N(C)C(=O)[C@@H](CO)NS(=O)(=O)Cc1ccc(Cl)cc1` [WX-582, 4-chlorobenzylsulfonyl-(D)-Ser-N-Me-Ala-(4-guanidinobenzyl)amide], the inhibitory constant (Ki) on urokinase (uPA) (setting [2]) was 10 nM; on urokinase (uPA) (read-out: Ki uPA), 10 nM; on PK it was 58 µM. In addition, the “% amount in the basolateral compartment” value stood at 0.4% with Caco-2 cell monolayers (first value column), 3.1% with Caco-2 cell monolayers (second value column) and 5.2% with Caco-2 cell monolayers (third value column). The “Caco-2 assay % basolateral” value is listed as 0% in the series on Caco-2 cell monolayers (first series, first value); 3.1% in the series with Caco-2 cell monolayers (first series, second value); 5.2% in the series on Caco-2 cell monolayers (first series, third value); 0.4% in the series with Caco-2 cell monolayers (second series, first value); 2.9% with Caco-2 cell monolayers (second series, second value); 3.0% in the series with Caco-2 cell monolayers (second series, third value). The concentration at 20 min amounted to 0 ng/mL in series [1] (7.5 mg/kg, 7.5 mg/kg oral) and 1000 ng/mL in series [1] (75 mg/kg, 75 mg/kg oral). Besides, the concentration at 40 min in series [1] (7.5 mg/kg, 7.5 mg/kg oral) stood at 0 ng/mL; in series [1] (75 mg/kg, 75 mg/kg oral), 700 ng/mL. Besides, the concentration at 60 min in series [1] (7.5 mg/kg, 7.5 mg/kg oral) was 0 ng/mL; in series [1] (75 mg/kg, 75 mg/kg oral), 400 ng/mL. For the same compound, the “c in the serum 1st analysis” value was 11.5 µg/mL in series [1] (2.5 mg/kg i.v., time of sample collection 0); 0.8 µg/mL in series [1] (2.5 mg/kg i.v., time of sample collection 10); 0.1 µg/mL in series [1] (2.5 mg/kg i.v., time of sample collection 30).

The term Ki denotes the dissociation constant of the complex between target and ligand, obtained from inhibition or displacement.

The values above are taken from US20040266766A1, “Selective urokinase inhibitors” (Wilex AG, priority 2001, published 2004).
